Data published in patent US10364256B2 (GlaxoSmithKline Intellectual Property Development Limited, priority 2015, dated 2019).
pIC50: −log10 of the molar value.

Legend:
[1] = target: T1, full length Keap1 protein / full length NRF2 protein (Homo sapiens, UniProt Q14145); assay: NRF2-Keap1 TR-FRET Low Protein Assay; type: binding; settings: 1.25 nM Keap1 FlagHis and 2.5 nM biotin-NRF2 added
T1 construct: full length NRF2 protein and full length Keap1 protein (Keap1 exists a dimer) are used; His
Procedure, shortened: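 Flag-tagged full-length Keap1 was preincubated with compound (3-fold series) for 2.25 h at 37 °C in Tris pH 8.0/MgCl2/NaCl/BSA/DTT/CHAPS. Biotin-Avi-NRF2 (added at 2.5 nM) was then bound for 1.25 h at 4 °C. Eu-streptavidin/anti-Flag-APC TR-FRET (665/615 nm) was read after 1 h at RT, and pIC50 came from a four-parameter fit.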

[2] = target: T2, Keap1 Kelch domain (321-609) / TAMRA-labeled 16mer NRF2 peptide (ETGE motif) (Homo sapiens, UniProt Q14145); assay: NRF2-Keap1 FP Assay (Keap1 Kelch fluorescence polarization); type: binding; settings: 20 nM Keap1 (321-609), 8 nM Tamra labeled peptide
T2 construct: the Kelch domain (321-609) of Keap1 is used
T2 sequence (Q14145 321-609): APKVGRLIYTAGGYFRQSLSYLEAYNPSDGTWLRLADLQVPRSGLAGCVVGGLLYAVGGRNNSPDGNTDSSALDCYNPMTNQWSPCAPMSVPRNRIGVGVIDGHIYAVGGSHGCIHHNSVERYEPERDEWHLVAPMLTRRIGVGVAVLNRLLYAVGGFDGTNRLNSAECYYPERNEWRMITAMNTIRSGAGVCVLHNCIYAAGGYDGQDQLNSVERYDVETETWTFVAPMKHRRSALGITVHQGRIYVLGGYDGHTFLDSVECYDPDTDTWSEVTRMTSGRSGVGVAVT
Procedure, shortened: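 Compound dilutions (3-fold) were incubated 1 hr at room temperature with 20 nM Keap1 Kelch (321-609) and 8 nM TAMRA-labeled ETGE 16mer peptide. Buffer was 50 mM Tris pH 8.0, 100 mM NaCl, 5 mM MgCl2, 1 mM DTT, 2 mM CHAPS, 0.005% BSA. Fluorescence polarization (mP) was normalized to controls and fitted with a four-parameter equation to give pIC50.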

T1 sequence (Q14145 whole entry): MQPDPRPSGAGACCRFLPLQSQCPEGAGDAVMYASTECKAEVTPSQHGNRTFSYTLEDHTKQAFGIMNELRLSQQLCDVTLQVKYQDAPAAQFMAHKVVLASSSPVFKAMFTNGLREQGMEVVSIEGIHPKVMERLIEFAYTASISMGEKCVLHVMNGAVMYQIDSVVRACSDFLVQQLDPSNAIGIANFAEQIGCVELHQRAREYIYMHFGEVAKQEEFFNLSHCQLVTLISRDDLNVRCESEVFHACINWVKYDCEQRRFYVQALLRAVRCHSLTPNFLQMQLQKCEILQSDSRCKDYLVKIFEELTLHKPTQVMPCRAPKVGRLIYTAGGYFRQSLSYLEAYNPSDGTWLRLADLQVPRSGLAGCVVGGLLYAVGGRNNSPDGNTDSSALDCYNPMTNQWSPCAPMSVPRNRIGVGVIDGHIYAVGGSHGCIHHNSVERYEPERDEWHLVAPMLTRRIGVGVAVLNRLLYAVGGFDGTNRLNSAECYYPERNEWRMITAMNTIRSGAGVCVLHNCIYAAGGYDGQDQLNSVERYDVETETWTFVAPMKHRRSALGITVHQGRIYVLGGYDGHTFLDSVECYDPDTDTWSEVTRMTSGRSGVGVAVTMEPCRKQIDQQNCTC

SMILES | pIC50 [1] | pIC50 [2]
Cn1cc([C@@H]2C[C@H]2c2c(C(=O)O)cnn2-c2cccc(-c3cccc(OCCC4CCCCC4)c3)c2)nn1 (racemic) [Example 245, 1-(3′-(2-cyclohexylethoxy)-[1,1′-biphenyl]-3-yl)-5-(trans-2-(1-methyl-1H-1,2,3-triazol-4-yl)cyclopropyl)-1H-pyrazole-4-carboxylic Acid] | 7.00 to 8.00 | 7.00 to 8.00
Cn1cc([C@@H]2C[C@H]2c2c(C(=O)O)cnn2-c2cccc(-c3cncc(OCC4CCCCC4)c3)c2)nn1 (racemic) [Example 246, 1-(3-(5-(Cyclohexylmethoxy)pyridin-3-yl)phenyl)-5-(trans-2-(1-methyl-1H-1,2,3-triazol-4-yl)cyclopropyl)-1H-pyrazole-4-carboxylic Acid] | 6.00 to 7.00 | 6.00 to 7.00
CCC[C@@H]1CCCCN1C(=O)c1cccc(-c2cc(C)cc(-n3ncc(C(=O)O)c3[C@@H]3C[C@H]3c3cn(C)nn3)c2)c1 (single isomer, unassigned) [Example 155] | > 8.00 | 7.00 to 8.00
CC(Oc1cccc(-c2cccc(-n3ncc(C(=O)O)c3[C@H]3C[C@@H]3c3cn(C)nn3)c2)c1)C1CCCCC1 (single isomer, unassigned) [Example 191] | 6.00 to 7.00 | 6.00 to 7.00
Cn1cc([C@H]2C[C@@H]2c2c(C(=O)O)cnn2-c2cccc(-c3cccc(-n4ncc5c4C(C)(C)CC5)c3)c2)nn1 (stereo in doubt) [Example 208, 1-(3′-(6,6-Dimethyl-5,6-dihydrocyclopenta[c]pyrazol-1(4H)-yl)-[1,1′-biphenyl]-3-yl)-5-((1S,2S)-2-(1-methyl-1H-1,2,3-triazol-4-yl)cyclopropyl)-1H-pyrazole-4-carboxylic Acid] | > 8.00 | 7.00 to 8.00
O=C(O)c1cnn(-c2cccc(-c3cccc(C(=O)N(CC4CCCC4)CC4CC4)c3F)c2)c1C1CC1 [Example 14, 1-(3-{3-[(Cyclopentylmethyl)(cyclopropylmethyl)carbamoyl]-2-fluorophenyl}phenyl)-5-cyclopropyl-1H-pyrazole-4-carboxylic Acid] | 7.00 to 8.00 | 7.00 to 8.00
CCCC1CCCCN1C(=O)c1cccc(-c2cccc(-n3ncc(C(=O)O)c3C3CC3)c2)c1F (centres unmarked) [Example 17, 5-Cyclopropyl-1-{3-[2-fluoro-3-(2-propylpiperidine-1-carbonyl)phenyl]phenyl}-1H-pyrazole-4-carboxylic Acid] | 7.00 to 8.00 | 7.00 to 8.00
C[C@@H]1CCC[C@H](C)N1C(=O)c1cccc(-c2cccc(-n3ncc(C(=O)O)c3C3CC3)c2)c1F [Example 21, 5-Cyclopropyl-1-(3-{3-[(2R,6S)-2,6-dimethylpiperidine-1-carbonyl]-2-fluorophenyl}phenyl)-1H-pyrazole-4-carboxylic Acid] | 6.00 to 7.00 | 7.00 to 8.00
CCCC1CCCCN1C(=O)c1cccc(-c2cccc(-n3ncc(C(=O)O)c3C3CC3c3cccnn3)c2)c1 (centres unmarked) [Example 41, 1-[3′-(2-Propyl-piperidine-1-carbonyl)-biphenyl-3-yl]-5-(2-pyridazin-3-yl-cyclopropyl)-1H-pyrazole-4-carboxylic Acid] | > 8.00 | 7.00 to 8.00
CCCC1CCCCN1C(=O)c1cccc(-c2cccc(-n3ncc(C(=O)O)c3C3CC3c3cn(C)nn3)c2)c1 (centres unmarked) [Example 42, 5-[2-(1-methyl-1H-1,2,3-triazol-4-yl)cyclopropyl]-1-{3-[3-(2-propylpiperidine-1-carbonyl)phenyl]phenyl}-1H-pyrazole-4-carboxylic Acid] | > 8.00 | 7.00 to 8.00
CCC[C@@H]1CCCCN1C(=O)c1cccc(-c2cccc(-n3ncc(C(=O)O)c3[C@H]3C[C@@H]3c3cn(C)nn3)c2)c1 [Example 51g, 5-[(1S,2S)-2-(1-methyl-1H-1,2,3-triazol-4-yl)cyclopropyl]-1-(3-{3-[(2R)-2-propylpiperidine-1-carbonyl]phenyl}phenyl)-1H-pyrazole-4-carboxylic Acid] | 6.00 to 7.00 | 6.00 to 7.00
CCC[C@@H]1CCCCN1C(=O)c1cccc(-c2cccc(-n3ncc(C(=O)O)c3[C@@H]3C[C@H]3c3cn(C)nn3)c2)c1 [Example 51h, 5-[(1R,2R)-2-(1-methyl-1H-1,2,3-triazol-4-yl)cyclopropyl]-1-(3-{3-[(2R)-2-propylpiperidine-1-carbonyl]phenyl}phenyl)-1H-pyrazole-4-carboxylic Acid] | > 8.00 | 7.00 to 8.00
CCC[C@@H]1CCCCN1C(=O)c1cccc(-c2cccc(-n3ncc(C(=O)O)c3C3CC3c3cn(C)nn3)c2)c1F (stereo partly drawn) [Example 57, 1-(2′-Fluoro-3′-((R)-2-propylpiperidine-1-carbonyl)-[1,1′-biphenyl]-3-yl)-5-(2-(1-methyl-1H-1,2,3-triazol-4-yl)cyclopropyl)-1H-pyrazole-4-carboxylic Acid] | > 8.00 | 7.00 to 8.00
O=C(O)c1cnn(-c2cccc(-c3cccc(-n4ncc5c4CCC5)c3)c2)c1C1CC1 [Example 61, 5-Cyclopropyl-1-(3′-(5,6-dihydrocyclopenta[c]pyrazol-1(4H)-yl)-[1,1′-biphenyl]-3-yl)-1H-pyrazole-4-carboxylic Acid] | 5.00 to 6.00 | 6.00 to 7.00
O=C(O)c1cnn(-c2cccc(-c3cccc(-n4ncc5c4CCCC5)c3)c2)c1C1CC1 [Example 62, 5-cyclopropyl-1-(3′-(4,5,6,7-tetrahydro-1H-indazol-1-yl)-[1,1′-biphenyl]-3-yl)-1H-pyrazole-4-carboxylic Acid] | 6.00 to 7.00 | 6.00 to 7.00
CCC[C@@H]1CCCCN1C(=O)c1cccc(-c2cccc(-n3ncc(C(=O)O)c3C3CC3(F)F)c2)c1 (stereo partly drawn) [Example 67, 5-(2,2-Difluorocyclopropyl)-1-(3′-((R)-2-propylpiperidine-1-carbonyl)-[1,1′-biphenyl]-3-yl)-1H-pyrazole-4-carboxylic Acid] | 7.00 to 8.00 | 7.00 to 8.00
CC[C@@H]1CN(Cc2cccc(-c3cccc(-n4ncc(C(=O)O)c4C4CC4c4cn(C)nn4)c3)c2)Cc2ccccc2O1 (stereo partly drawn) [Example 129, 1-(3′-(((R)-2-ethyl-2,3-dihydrobenzo[f][1,4]oxazepin-4(5H)-yl)methyl)-[1,1′-biphenyl]-3-yl)-5-(2-(1-methyl-1H-1,2,3-triazol-4-yl)cyclopropyl)-1H-pyrazole-4-carboxylic Acid] | > 8.00 | 7.00 to 8.00
CCC[C@@H]1CCCCN1C(=O)c1cccc(-c2cc(C)cc(-n3ncc(C(=O)O)c3C3CC3c3cn(C)nn3)c2)c1 (stereo partly drawn) [Example 154, 5-(2-(1-Methyl-1H-1,2,3-triazol-4-yl)cyclopropyl)-1-(5-methyl-3′-((R)-2-propylpiperidine-1-carbonyl)-[1,1′-biphenyl]-3-yl)-1H-pyrazole-4-carboxylic Acid] | > 8.00 | 7.00 to 8.00
CCC[C@@H]1CCCCN1C(=O)c1cccc(-c2cc(Cl)cc(-n3ncc(C(=O)O)c3C3CC3c3cn(C)nn3)c2)c1 (stereo partly drawn) [Example 160, 1-(5-Chloro-3′-((R)-2-propylpiperidine-1-carbonyl)-[1,1′-biphenyl]-3-yl)-5-(2-(1-methyl-1H-1,2,3-triazol-4-yl)cyclopropyl)-1H-pyrazole-4-carboxylic Acid Compound with 2,2,2-trifluoroacetic Acid (1:1)] | > 8.00 | 7.00 to 8.00
CC(CC1CCCCC1)Oc1cccc(-c2cccc(-n3ncc(C(=O)O)c3C3CC3)c2)c1 (centres unmarked) [Example 161, 1-(3′-((1-Cyclohexylpropan-2-yl)oxy)-[1,1′-biphenyl]-3-yl)-5-cyclopropyl-1H-pyrazole-4-carboxylic Acid] | 5.00 to 6.00 | 5.00 to 6.00
CC(Oc1cccc(-c2cccc(-n3ncc(C(=O)O)c3[C@@H]3C[C@H]3c3cn(C)nn3)c2)c1)C1CCCCC1 (stereo partly drawn) [Example 163, 1-(3′-(1-Cyclohexylethoxy)-[1,1′-biphenyl]-3-yl)-5-((1R,2R)-2-(1-methyl-1H-1,2,3-triazol-4-yl)cyclopropyl)-1H-pyrazole-4-carboxylic acid] | 6.00 to 7.00 | 6.00 to 7.00
Cn1cc(C2CC2c2c(C(=O)O)cnn2-c2cccc(-c3cccc(OCC4CCCCC4)c3)c2)nn1 (centres unmarked) [Example 164, 1-(3′-(Cyclohexylmethoxy)-[1,1′-biphenyl]-3-yl)-5-(2-(1-methyl-1H-1,2,3-triazol-4-yl)cyclopropyl)-1H-pyrazole-4-carboxylic acid] | 7.00 to 8.00 | 7.00 to 8.00
CC(Oc1cccc(-c2cccc(-n3ncc(C(=O)O)c3[C@H]3C[C@@H]3c3cn(C)nn3)c2)c1)C1CCCCC1 (stereo partly drawn) [Example 165, 1-(3′-(1-Cyclohexylethoxy)-[1,1′-biphenyl]-3-yl)-5-((1S,2S)-2-(1-methyl-1H-1,2,3-triazol-4-yl)cyclopropyl)-1H-pyrazole-4-carboxylic acid] | > 8.00 | 7.00 to 8.00
Cn1cc(C2CC2c2c(C(=O)O)cnn2-c2cccc(-c3cccc(OCC4CCN(C(=O)OC(C)(C)C)CC4)c3)c2)nn1 (centres unmarked) [Example 167, 1-(3′-((1-(tert-Butoxycarbonyl)piperidin-4-yl)methoxy)-[1,1′-biphenyl]-3-yl)-5-(2-(1-methyl-1H-1,2,3-triazol-4-yl)cyclopropyl)-1H-pyrazole-4-carboxylic acid] | 7.00 to 8.00 | 7.00 to 8.00
Cn1cc([C@@H]2C[C@H]2c2c(C(=O)O)cnn2-c2cccc(-c3cccc(OCC4CCCCC4)c3)c2)nn1 [Example 171, 1-(3′-(Cyclohexylmethoxy)-[1,1′-biphenyl]-3-yl)-5-((1R,2R)-2-(1-methyl-1H-1,2,3-triazol-4-yl)cyclopropyl)-1H-pyrazole-4-carboxylic acid] | 7.00 to 8.00 | 7.00 to 8.00
